Results as given in patent US8563717B2, “Adenine derivatives” (GlaxoSmithKline LLC, priority 2008, dated 2013).
Structures can show the parent of a compound that is named as a salt.

tested on: Interferon-α; experiment: Induction of Interferon-α using cryopreserved human PBMCs; assay type: cell-based; settings: PBMC, 24 h incubation, normalised to 1 uM resiquimod, read-out: mean pEC50 for induction of IFN-α (converted)
Procedure: Assay for the Induction of Interferon-α Using Cryopreserved Human Peripheral Blood Mononuclear Cells (PBMCs)
Compounds were dissolved in DMSO. Serial 2-fold dilutions with DMSO were prepared and 0.25 μl dispensed into 384-well clear Greiner polypropylene plates.
Blood samples of up to 200 ml were obtained from healthy human donors. Whole blood in 25 ml volumes was overlaid onto 15 ml Ficoll gradients in Leucosep tubes, and centrifuged at 1000 g for 20 min. Cells in the band at the plasma/histopaque interface were carefully removed and washed twice with PBS (centrifuged at 400 g for 5 min to harvest). The final pellet was resuspended in freezing medium (90% Heat-inactivated serum, 10% DMSO) to a cell concentration of 4×10^7 cells/ml. The resuspended cells were then cryopreserved (frozen) using a rate controlled freezer, and stored at −140° C. for up to 4 months.
Immediately prior to assay, vials of cryopreserved (frozen) PBMCs were thawed rapidly in a water bath at 37° C. A 1:10 dilution of the cells in trypan blue was prepared and counted. The PBMCs were then diluted in growth media [RPMI 1640 containing 10% fetal calf serum (invitrogen), Penicillin+[…] (Gibco cat. #25030-024, 1:50), L-Glutamine 2 mM, and 1000 units/ml recombinant human IFN-gamma (Preprotech catalogue #300-02)] to a density of 1×10^6 cells/ml, and 50 ul/well dispensed to 384-well clear Greiner polypropylene plates containing 0.25 μl DMSO or test compound in 0.25 μl DMSO. […] Plates were incubated for 24 h at 37° C. in 5% CO2.
A multi-isoform immunoassay was used to quantify IFN-α in PBMC supernatants. Rabbit polyclonal antibody against human IFN-α (catalogue number 31101, Stratech Scientific) was diluted 1:10000 in assay buffer (RPMI 1640 containing 10% fetal calf serum, Invitrogen) and 20 μl was added to each well of an MSD (Meso-Scale Discovery) single small-spot 384-well GAR (goat anti-rabbit antibody coated) plate. The plate was incubated for 1 hour at room temperature with vigorous shaking. Following three washes with PBS, 20 μl of cell supernatant were added to each well of the plate. The plate was then incubated for 1 hour at room temperature with vigorous shaking. A pair of monoclonal antibodies to IFN-α (catalogue numbers 21100 and 21112, Stratech Scientific) were labelled with sulfo-TAG (MSD), diluted 1:1000 in assay buffer and 20 μl added to each well of the plate. The plate was further incubated for 1 hour at room temperature with vigorous shaking. Following three washes with PBS, 30 μl of x2 T buffer (MSD) was added to each well and the plate was read on an MSD Sector 6000 plate reader.
Data were normalised to internal plate controls of 1 uM resiquimod (n=16) and DMSO (n=16). pEC50 values were derived by 4-parameter curve fit with IRLS in ActivityBase, from 11-point, two-fold serial dilution of test compounds.

**Q.** For `CCCCOc1nc(N)c2[nH]c(=O)n(CCCC3CCCN(C4CCCC4)C3)c2n1` (centres unmarked) [Example 50, 6-Amino-2-(butyloxy)-9-[3-(1-cyclopentyl-3-piperidinyl)propyl]-7,9-dihydro-8H-purin-8-one], which EC50 is on record?
**A.** The EC50 was under 1.58 µM.

**Q.** With `CCCCOc1nc(N)c2[nH]c(=O)n(CCCC3CCCN(CC4CCCC4)C3)c2n1` (centres unmarked) [Example 51, 6-Amino-2-(butyloxy)-9-{3-[1-(cyclopentylmethyl)-3-piperidinyl]propyl}-7,9-dihydro-8H-purin-8-one hydrochloride] as the molecule, how does the EC50 read?
**A.** The EC50 was under 1.58 µM.

**Q.** For `CCCCOc1nc(N)c2[nH]c(=O)n(CCCC3CCCN(CCC4CCCCC4)C3)c2n1` (centres unmarked) [Example 52, 6-Amino-2-(butyloxy)-9-{3-[1-(2-cyclohexylethyl)-3-piperidinyl]propyl}-7,9-dihydro-8H-purin-8-one], which EC50 is on record?
**A.** Its EC50 is under 1.58 µM.

**Q.** With `CCC[C@H](C)Oc1nc(N)c2[nH]c(=O)n(CCCC3CCCNC3)c2n1` (stereo partly drawn) [Example 53, 6-Amino-2-{[(1S)-1-methylbutyl]oxy}-9-[3-(3-piperidinyl)propyl]-7,9-dihydro-8H-purin-8-one] as the molecule, how does the EC50 read?
**A.** Its EC50 is under 1.58 µM.

**Q.** For `CCC[C@H](C)Oc1nc(N)c2[nH]c(=O)n(CCCC3CCCN(CC)C3)c2n1` (stereo partly drawn) [Example 54, 6-Amino-9-[3-(1-ethyl-3-piperidinyl)propyl]-2-{[(1S)-1-methylbutyl]oxy}-7,9-dihydro-8H-purin-8-one], which EC50 is on record?
**A.** The EC50 was under 1.58 µM.

**Q.** How did the EC50 turn out when `CCCCOc1nc(N)c2[nH]c(=O)n(CCCCC3CCCNC3)c2n1` (centres unmarked) [Example 55, 6-amino-2-(butyloxy)-9-[4-(3-piperidinyl)butyl]-7,9-dihydro-8H-purin-8-one] was run?
**A.** Its EC50 is under 1.58 µM.

**Q.** With `CCCCOc1nc(N)c2[nH]c(=O)n(CCCCC3CCCN(CC)C3)c2n1` (centres unmarked) [Example 56, 6-Amino-2-(butyloxy)-9-[4-(1-ethyl-3-piperidinyl)butyl]-7,9-dihydro-8H-purin-8-one] as the molecule, how does the EC50 read?
**A.** Its EC50 is under 1.58 µM.

**Q.** How did the EC50 turn out when `CCCCOc1nc(N)c2[nH]c(=O)n(CCCCC3CCCN(CCC)C3)c2n1` (centres unmarked) [Example 57, 6-Amino-2-(butyloxy)-9-[4-(1-propyl-3-piperidinyl)butyl]-7,9-dihydro-8H-purin-8-one] was run?
**A.** Its EC50 is under 1.58 µM.

**Q.** `CCCCOc1nc(N)c2[nH]c(=O)n(CCCCC3CCCN(C(C)C)C3)c2n1` (centres unmarked) [Example 58, 6-Amino-2-(butyloxy)-9-{4-[1-(1-methylethyl)-3-piperidinyl]butyl}-7,9-dihydro-8H-purin-8-one] was tested. Which EC50 did it give?
**A.** Its EC50 is under 1.58 µM.

**Q.** How did the EC50 turn out when `CCCCOc1nc(N)c2[nH]c(=O)n(CCCCC3CCCN(CCCC)C3)c2n1` (centres unmarked) [Example 59, 6-Amino-2-(butyloxy)-9-[4-(1-butyl-3-piperidinyl)butyl]-7,9-dihydro-8H-purin-8-one] was run?
**A.** The EC50 was under 1.58 µM.

**Q.** For `CCCCOc1nc(N)c2[nH]c(=O)n(CCCCC3CCCN(CC(C)C)C3)c2n1` (centres unmarked) [Example 60, 6-Amino-2-(butyloxy)-9-{4-[1-(2-methylpropyl)-3-piperidinyl]butyl}-7,9-dihydro-8H-purin-8-one hydrochloride], which EC50 is on record?
**A.** Its EC50 is under 1.58 µM.

**Q.** How did the EC50 turn out when `CCCCOc1nc(N)c2[nH]c(=O)n(CCCCC3CCCN(CCC(C)C)C3)c2n1` (centres unmarked) [Example 61, 6-Amino-2-(butyloxy)-9-{4-[1-(3-methylbutyl)-3-piperidinyl]butyl}-7,9-dihydro-8H-purin-8-one] was run?
**A.** The EC50 was under 1.58 µM.

**Q.** For `CCCCOc1nc(N)c2[nH]c(=O)n(CCCCC3CCCN(C4CCCC4)C3)c2n1` (centres unmarked) [Example 62, 6-Amino-2-(butyloxy)-9-[4-(1-cyclopentyl-3-piperidinyl)butyl]-7,9-dihydro-8H-purin-8-one], which EC50 is on record?
**A.** Its EC50 is under 1.58 µM.

**Q.** `CCCCOc1nc(N)c2[nH]c(=O)n(CCCCC3CCCN(CC4CCCC4)C3)c2n1` (centres unmarked) [Example 63, 6-Amino-2-(butyloxy)-9-{4-[1-(cyclopentylmethyl)-3-piperidinyl]butyl}-7,9-dihydro-8H-burin-8-one hydrochloride] was tested. Which EC50 did it give?
**A.** Its EC50 is under 1.58 µM.

**Q.** `CCCCOc1nc(N)c2[nH]c(=O)n(CCCCC3CCCN(CCC4CCCCC4)C3)c2n1` (centres unmarked) [Example 64, 6-Amino-2-(butyloxy)-9-{4-[1-(2-cyclohexylethyl)-3-piperidinyl]butyl}-7,9-dihydro-8H-burin-8-one] was tested. Which EC50 did it give?
**A.** Its EC50 is under 1.58 µM.

**Q.** With `CCC[C@H](C)Oc1nc(N)c2[nH]c(=O)n(CCCCC3CCCNC3)c2n1` (stereo partly drawn) [Example 65, 6-Amino-2-{[(1S)-1-methylbutyl]oxy}-9-[4-(3-piperidinyl)butyl]-7,9-dihydro-8H-purin-8-one] as the molecule, how does the EC50 read?
**A.** Its EC50 is under 1.58 µM.

**Q.** How did the EC50 turn out when `CCCCOc1nc(N)c2[nH]c(=O)n(CCCCCC3CCCNC3)c2n1` (centres unmarked) [Example 67, 6-Amino-2-(butyloxy)-9-[5-(3-piperidinyl)pentyl]-7,9-dihydro-8H-purin-8-one] was run?
**A.** The EC50 was under 1.58 µM.

**Q.** For `CCCCOc1nc(N)c2[nH]c(=O)n(CCCCCC3CCCN(CC)C3)c2n1` (centres unmarked) [Example 68, 6-Amino-2-(butyloxy)-9-[5-(1-ethyl-3-piperidinyl)pentyl]-7,9-dihydro-8H-purin-8-one], which EC50 is on record?
**A.** Its EC50 is under 1.58 µM.

**Q.** How did the EC50 turn out when `CCCCOc1nc(N)c2[nH]c(=O)n(CC3CCN(CCC)CC3)c2n1` [Example 70, 6-Amino-2-(butyloxy)-9-[(1-propyl-4-piperidinyl)methyl]-7,9-dihydro-8H-purin-8-one] was run?
**A.** Its EC50 is under 1.58 µM.

**Q.** With `CCCCOc1nc(N)c2[nH]c(=O)n(CC3CCN(C(C)C)CC3)c2n1` [Example 71, 6-Amino-2-(butyloxy)-9-{[1-(1-methylethyl)-4-piperidinyl]methyl}-7,9-dihydro-8H-purin-8-one] as the molecule, how does the EC50 read?
**A.** Its EC50 is under 1.58 µM.

**Q.** For `CCCCOc1nc(N)c2[nH]c(=O)n(CC3CCN(CCCC)CC3)c2n1` [Example 72, 6-Amino-2-(butyloxy)-9-[(1-butyl-4-piperidinyl)methyl]-7,9-dihydro-8H-purin-8-one], which EC50 is on record?
**A.** The EC50 was under 1.58 µM.

**Q.** With `CCCCOc1nc(N)c2[nH]c(=O)n(CC3CCN(CC(C)C)CC3)c2n1` [Example 73, 6-Amino-2-(butyloxy)-9-{[1-(2-methylpropyl)-4-piperidinyl]methyl}-7,9-dihydro-8H-purin-8-one] as the molecule, how does the EC50 read?
**A.** The EC50 was under 1.58 µM.

**Q.** `CCCCOc1nc(N)c2[nH]c(=O)n(CC3CCN(CCC(C)C)CC3)c2n1` [Example 74, 6-Amino-2-(butyloxy)-9-{[1-(3-methylbutyl)-4-piperidinyl]methyl}-7,9-dihydro-8H-purin-8-one] was tested. Which EC50 did it give?
**A.** Its EC50 is under 1.58 µM.

**Q.** For `CCCCOc1nc(N)c2[nH]c(=O)n(CC3CCN(C4CCCC4)CC3)c2n1` [Example 75, 6-Amino-2-(butyloxy)-9-[(1-cyclopentyl-4-piperidinyl)methyl]-7,9-dihydro-8H-purin-8-one], which EC50 is on record?
**A.** The EC50 was under 1.58 µM.

**Q.** For `CCCCOc1nc(N)c2[nH]c(=O)n(CC3CCN(C4CCCCC4)CC3)c2n1` [Example 76, 6-Amino-2-(butyloxy)-9-[(1-cyclohexyl-4-piperidinyl)methyl]-7,9-dihydro-8H-purin-8-one], which EC50 is on record?
**A.** Its EC50 is under 1.58 µM.

**Q.** With `CCC[C@H](C)Oc1nc(N)c2[nH]c(=O)n(CC3CCNCC3)c2n1` [Example 77, 6-Amino-2-{[(1S)-1-Methylbutyl]oxy}-9-(4-piperidinylmethyl)-7,9-dihydro-8H-purin-8-one] as the molecule, how does the EC50 read?
**A.** Its EC50 is under 1.58 µM.

**Q.** How did the EC50 turn out when `CCC[C@H](C)Oc1nc(N)c2[nH]c(=O)n(CC3CCN(CC)CC3)c2n1` [Example 78, 6-Amino-9-[(1-ethyl-4-piperidinyl)methyl]-2-{[(1S)-1-methylbutyl]oxy}-7,9-dihydro-8H-purin-8-one] was run?
**A.** The EC50 was under 1.58 µM.

**Q.** Which EC50 does the source give for `CCC[C@H](C)Oc1nc(N)c2[nH]c(=O)n(CC3CCN(C(C)C)CC3)c2n1` [Example 79, 6-Amino-2-{[(1S)-1-methylbutyl]oxy}-9-{[1-(1-methylethyl)-4-piperidinyl]methyl}-7,9-dihydro-8H-purin-8-one] here?
**A.** Its EC50 is under 1.58 µM.

**Q.** Which EC50 does the source give for `CCCCOc1nc(N)c2[nH]c(=O)n(CCC3CCN(CCC)CC3)c2n1` [Example 80, 6-Amino-2-(butyloxy)-9-[2-(1-propyl-4-piperidinyl)ethyl]-7,9-dihydro-8H-purin-8-one] here?
**A.** The EC50 was under 1.58 µM.

**Q.** Which EC50 does the source give for `CCCCOc1nc(N)c2[nH]c(=O)n(CCC3CCN(CCCC)CC3)c2n1` [Example 82, 6-Amino-2-(butyloxy)-9-[2-(1-butyl-4-piperidinyl)ethyl]-7,9-dihydro-8H-purin-8-one] here?
**A.** The EC50 was under 1.58 µM.

**Q.** How did the EC50 turn out when `CCCCOc1nc(N)c2[nH]c(=O)n(CCC3CCN(CC(C)C)CC3)c2n1` [Example 83, 6-Amino-2-(butyloxy)-9-{2-[1-(2-methylpropyl)-4-piperidinyl]ethyl}-7,9-dihydro-8H-purin-8-one] was run?
**A.** The EC50 was under 1.58 µM.

**Q.** `CCCCOc1nc(N)c2[nH]c(=O)n(CCC3CCN(C(CC)CC)CC3)c2n1` [Example 84, 6-Amino-2-(butyloxy)-9-{2-[1-(1-ethylpropyl)-4-piperidinyl]ethyl}-7,9-dihydro-8H-purin-8-one] was tested. Which EC50 did it give?
**A.** Its EC50 is under 1.58 µM.
